Measurements: patent publication US20110039763A1, “TARGETED ANTIMICROBIAL MOIETIES” (C3 JIAN, INC., priority 2009, published 2011)
Entries after “also recorded” stand apart in the source; their conditions may differ.

Assays:
microorganisms [1] = assay: Peptide activities: targeting/binding, antimicrobial, growth or phenotype altering (Tables 7, 8); format: cell-based; conditions: peptides having multiple activities
microorganisms [2] = assay: Targeting peptide binding to target microorganisms (Tables 3, 10, 12); conditions: microorganism(s) the targeting peptide binds; binding in aqueous buffers varied with peptide solubility, preferably 1x PBS
microorganisms [3] = assay: Morphology, biofilm and growth disrupting peptides (Table 5); format: cell-based; design: key: A: Peptide aggregates; B: Less hyphal formation; Clumps; Diffuse clumps and small polyps; F: Diffuse growth; H: Thin; I: Growth inhibition; Microcolony formation; Rippled; Small polyps; Thick; W: Halo formation on top, microlonies on bottom
Excerpt: In certain embodiments peptides that induce alterations in phenotype or other biological activities can also be used as antimicrobial effector moieties.

Substance	Activities (microorganisms [1])	Target(s) (microorganisms [2])	Organism, effect: M. luteus (microorganisms [3])	Organism, effect: S. epidermidis (microorganisms [3])	Organism, effect: B. subtilis (microorganisms [3])	Organism, effect: E. coli (microorganisms [3])	Organism, effect: MRSA (microorganisms [3])	Organism, effect: C. jejuni (microorganisms [3]; C. jejuni)	Organism, effect: E. faecalis (microorganisms [3]; E. faecalis)	Organism, effect: S. pneumoniae (microorganisms [3]; S. pneumoniae)
PF-234: peptide having multiple activities (RTPYILRS; Peptide with targeting and/or antimicrobial activity)	G B	S. epidermidis; also recorded: M. luteus	M. luteus (T)	–	–	–	–	–	–	–
PF-235: peptide having multiple activities (GIPFSKPHKRQVNYMKSDVLAYIEQNKMAHTA; Peptide with targeting and/or antimicrobial activity)	G B	S. epidermidis; also recorded: M. luteus	M. luteus (T)	–	–	–	–	–	–	–
PF-249: peptide having multiple activities (chain 1 INSRYKISF; chain 2 INSRYKISF; Peptide with targeting and/or antimicrobial activity)	G B	S. epidermidis; also recorded: M. luteus	M. luteus (R)	–	–	–	–	–	–	–
PF-255: peptide having multiple activities (chain 1 DHKINESQHNPFRSDSNKQNVDFF; chain 2 DHKINESQHNPFRSDSNKQNVDFF; Peptide with targeting and/or antimicrobial activity)	G B	P. aeruginosa	M. luteus (M)	–	–	–	–	–	–	–
PF-271: peptide having multiple activities (chain 1 AAQPQTTSP; chain 2 AAQPQTTSP; Peptide with targeting and/or antimicrobial activity)	G B	S. epidermidis; also recorded: M. luteus; also recorded: P. aeruginosa; also recorded: A. baumannii	M. luteus (T)	–	–	–	–	–	–	–
PF-273: peptide having multiple activities (chain 1 LVGALLIFVALIYMVLKGNADKN; chain 2 LVGALLIFVALIYMVLKGNADKN; Peptide with targeting and/or antimicrobial activity)	G B	S. epidermidis; also recorded: M. luteus; also recorded: P. aeruginosa; also recorded: A. baumannii	–	S. epidermidis (C)	–	–	–	–	–	–
PF-276: peptide having multiple activities (chain 1 LDLALSTNSLNLEGFSF; chain 2 LDLALSTNSLNLEGFSF; Peptide with targeting and/or antimicrobial activity)	G B	S. epidermidis	M. luteus (M)	–	–	–	–	–	–	–
PF-292: peptide having multiple activities (chain 1 SFVSTTVRLIFEESKRYKF; chain 2 SFVSTTVRLIFEESKRYKF; Peptide with targeting and/or antimicrobial activity)	G B	S. epidermidis; also recorded: B. subtilis; also recorded: B. fragilis	–	S. epidermidis (C)	B. subtilis (C)	–	–	–	–	–
PF-294: peptide having multiple activities (chain 1 DFLVNFLWFKGELNWGKKRYK; chain 2 DFLVNFLWFKGELNWGKKRYK; Peptide with targeting and/or antimicrobial activity)	G B	S. epidermidis; also recorded: C. difficile	–	S. epidermidis (C)	–	–	–	–	–	–
PF-297: peptide having multiple activities (ISKGIDDIVYVINKILSIGNIFKIIKRK; Peptide with targeting and/or antimicrobial activity)	G B	S. epidermidis; also recorded: B. subtilis; also recorded: B. fragilis	–	S. epidermidis (C)	B. subtilis (C)	–	–	–	–	–
PF-301: peptide having multiple activities (GIVLIGLKLIPLLANVLN; Peptide with targeting and/or antimicrobial activity)	G B	C. difficile	–	S. epidermidis (C)	B. subtilis (C)	–	–	–	–	–
PF-306: peptide having multiple activities (GCILPHKKDNYNYIMSKFQDLVKITSKK; Peptide with targeting and/or antimicrobial activity)	G B	C. difficile	–	–	B. subtilis (C)	–	–	–	–	–
PF-313: peptide having multiple activities (YITSHKNARAIIKKFERDEILEEVITHYLNRK; Peptide with targeting and/or antimicrobial activity)	G B	S. epidermidis; also recorded: C. difficile	–	S. epidermidis (C)	–	–	–	–	–	–
PF-344: peptide having multiple activities (DERLPEAKAIRNFNGSVMVLGR; Peptide with targeting and/or antimicrobial activity)	G B	B. subtilis; also recorded: C. jejuni	–	–	–	E. coli (A)	–	–	–	–
PF-350: peptide having multiple activities (LAVILRAIVY; Peptide with targeting and/or antimicrobial activity)	G B	S. epidermidis; also recorded: E. coli; also recorded: E. faecalis; also recorded: C. jeikeium; also recorded: C. jejuni	–	S. epidermidis (C)	–	E. coli (C)	MRSA (C)	–	–	–
PF-360: peptide having multiple activities (chain 1 MEQKVKVIFVPRSKPDNQLKTFVSAVLFKA; chain 2 MEQKVKVIFVPRSKPDNQLKTFVSAVLFKA; Peptide with targeting and/or antimicrobial activity)	G B	S. epidermidis; also recorded: B. subtilis; also recorded: E. coli; also recorded: P. aeruginosa; also recorded: C. albicans; also recorded: E. faecalis; also recorded: C. jeikeium; also recorded: C. jejuni	–	S. epidermidis (S)	–	E. coli (C)	MRSA (H)	–	–	–
PF-362: peptide having multiple activities (chain 1 NIERILKEKVWMIRCVE; chain 2 NIERILKEKVWMIRCVE; Peptide with targeting and/or antimicrobial activity)	G B	S. epidermidis; also recorded: E. coli; also recorded: P. aeruginosa; also recorded: C. albicans; also recorded: E. faecalis; also recorded: C. jejuni	–	–	–	E. coli (C)	MRSA (C)	–	–	–
PF-363: peptide having multiple activities (chain 1 SMLSVTVMCLMHASVAANQAMEKKV; chain 2 SMLSVTVMCLMHASVAANQAMEKKV; Peptide with targeting and/or antimicrobial activity)	G B	B. subtilis; also recorded: E. coli; also recorded: P. aeruginosa; also recorded: C. albicans; also recorded: S. pneumoniae; also recorded: E. faecalis	–	S. epidermidis (S)	–	E. coli (C)	MRSA (H)	C. jejuni (D)	E. faecalis (D)	S. pneumoniae (R)
